Measured values reported in the supplement of paper PMC12370961.

Legend:
Experiment in all cases: differential drug sensitivity score (dDSS) relative to sarcoma reference cohort mean DSS (DSS units (0-100 scale difference)); higher = more selective sensitivity than reference sarcomas
Conditions in all cases: exposure time: 72 h; concentration range: 10-10000 nM
[1] = test system: ES-ZH016 direct (Ewing sarcoma cells right after isolation)
Experimental: (§1)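 Drug response profiling of patient-derived Ewing sarcoma and CIC::DUX4 sarcoma tumoroid models (or cells tested directly after isolation from the tumor, 'direct'). The DSS is the normalised AUC (0-100); dDSS is the sample DSS minus the mean DSS of a 34-sarcoma reference cohort profiled in the same lab.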

[2] = test system: ES-ZH002 (patient-derived Ewing sarcoma tumoroid)
Experimental: as §1

[3] = test system: CDS-ZH003 (patient-derived CIC-DUX4 sarcoma tumoroid)
Experimental: as §1

[4] = test system: CDS-ZH002 (patient-derived CIC-DUX4 sarcoma tumoroid)
Experimental: as §1

[5] = test system: ES-ZH008 (patient-derived Ewing sarcoma tumoroid)
Experimental: as §1

[6] = test system: CDS-ZH001 (patient-derived CIC-DUX4 sarcoma tumoroid)
Experimental: as §1

[7] = test system: ES-ZH016 (patient-derived Ewing sarcoma tumoroid)
Experimental: as §1

[8] = test system: CDS-ZH001-2 (patient-derived CIC-DUX4 sarcoma tumoroid)
Experimental: as §1

[9] = test system: ES-ZH007 (patient-derived Ewing sarcoma tumoroid)
Experimental: as §1

[10] = test system: CDS-ZH002 direct (CIC-DUX4 sarcoma cells right after isolation)
Experimental: as §1

[11] = test system: ES-ZH009 (patient-derived Ewing sarcoma tumoroid)
Experimental: as §1

[12] = test system: ES-ZH001 (patient-derived Ewing sarcoma tumoroid)
Experimental: as §1

[13] = test system: ES-ZH004 (patient-derived Ewing sarcoma tumoroid)
Experimental: as §1

Row | SMILES | differential drug sensitivity score [1] | differential drug sensitivity score [2] | differential drug sensitivity score [3] | differential drug sensitivity score [4] | differential drug sensitivity score [5] | differential drug sensitivity score [6] | differential drug sensitivity score [7] | differential drug sensitivity score [8] | differential drug sensitivity score [9] | differential drug sensitivity score [10] | differential drug sensitivity score [11] | differential drug sensitivity score [12] | differential drug sensitivity score [13]
1 | CN[C@@H](C)C(=O)N[C@H](C(=O)N1CCC[C@H]1C(=O)Nc1snnc1-c1ccccc1)C1CCCCC1 [GDC0152] | 0.6 | 1.9 | 11.1 | -2.5 | 10.7 | 12.4 | -3.6 | 7.6 | -0.8 | 5.8 | 4.5 | -3.6 | 4.8
2 | Nc1ccn([C@@H]2O[C@H](CO)[C@@H](O)C2(F)F)c(=O)n1 [Gemcitabine] | 9.7 | 24.8 | -7 | -4.9 | 18.7 | 4.5 | 22.4 | 1.8 | 24.5 | -7 | 19.6 | 23.1 | 20.1
3 | CCc1nc(C(N)=O)c(Nc2ccc(N3CCC(N4CCN(C)CC4)CC3)c(OC)c2)nc1NC1CCOCC1 [Gilteritinib] | 9.4 | 16 | 10.4 | -1.4 | 10.2 | 7.4 | 0.8 | 8 | 4.2 | 1.6 | 10.1 | 1.1 | 4.2
4 | CCN(CC)Cc1ccc2cc(COC(=O)Nc3ccc(C(=O)NO)cc3)ccc2c1 [Givinostat] | 3.3 | 5.5 | -3.4 | -0.9 | 5.9 | -0.7 | 3.9 | 2.7 | 3.7 | 1.5 | 6.8 | 1.9 | 4.2
5 | CN1CC[C@@H](NC(=O)Nc2ccc(C#N)cc2)C[C@@H]1c1nc2ccccc2[nH]1 [Glasdegib] | -0.8 | 1.3 | 2.5 | -0.8 | -0.8 | -0.8 | -0.8 | -0.8 | -0.8 | -0.8 | -0.8 | -0.8 | -0.8
6 | COc1cccc(-c2cc(F)ccc2[C@H]2Cc3nc(N)nc(C)c3C(=O)N2)n1 [HSP-990] | 4.9 | 8.8 | 1.3 | -9.2 | 7.1 | 1.4 | 3.4 | 0.3 | 1.2 | -4 | 6 | 3.8 | -0.8
7 | COC(=O)C[C@](O)(CCCC(C)(C)O)C(=O)O[C@@H]1C(OC)=C[C@]23CCCN2CCc2cc4c(cc2[C@H]13)OCO4 [Homoharringtonine] | 2.7 | 9.7 | 1 | 6.3 | 13.3 | 10.1 | 3.1 | 10.7 | 10 | 10 | 6 | 3.5 | 1.9
8 | O=[P@]1(N(CCCl)CCCl)N[C@H](OO)CCO1 [Hydroperoxycyclophosphamide] | 4.6 | 7.7 | -4.1 | -3.6 | 6.5 | -0.7 | 2.2 | -2.3 | 0.2 | -3.6 | -1 | 1.7 | 6.4
9 | CCn1cc(-c2cccc(C(F)(F)F)c2)c2sc(C(=N)NC3CCS(=O)(=O)CC3)cc2c1=O [I-BRD9] | 9.8 | -1.8 | 8.4 | -1 | -2.8 | 2.7 | -1.6 | 3.3 | -1.8 | -2.6 | 2.6 | -1.6 | -2.8
10 | O=C(c1ccc(Nc2nccc(-c3cc4ccccc4s3)n2)cc1)N1CCC(N2CCCC2)CC1 [IKK16] | 0.1 | 2.3 | 0.7 | -4 | 0 | -0.1 | -4.4 | 0 | -0.6 | 0.3 | 0.4 | -2.5 | -4.1
11 | O=C(O)CNC(=O)c1c(O)c2ccccc2n(Cc2ccccc2)c1=O [IOX2] | -1.5 | 5.1 | 3.7 | -1.3 | 3.7 | -1.5 | -1.5 | -1.5 | -0.7 | 1 | -1.5 | 3.2 | 0.7
12 | C=CC(=O)N1CCC[C@@H](n2nc(-c3ccc(Oc4ccccc4)cc3)c3c(N)ncnc32)C1 [Ibrutinib] | 1.4 | 0.4 | -2.7 | -2.7 | -2.2 | -2.7 | -2.7 | -2.7 | -2.7 | -2.1 | -2.7 | -2.1 | -2.5
13 | CC(=O)[C@]1(O)Cc2c(O)c3c(c(O)c2[C@@H](O[C@H]2C[C@H](N)[C@H](O)[C@H](C)O2)C1)C(=O)c1ccccc1C3=O [Idarubicin] | 7.3 | 19.4 | 0.5 | 0.5 | 6.4 | -0.3 | 11.8 | 7 | -9.5 | 1.8 | 13.4 | 11.8 | -2.2
14 | COc1cc(C(=O)O)ccc1NC(=O)[C@@H]1N[C@@H](CC(C)(C)C)[C@](C#N)(c2ccc(Cl)cc2F)[C@H]1c1cccc(Cl)c1F [Idasanutlin] | 15.1 | 23 | 12 | 1.9 | 19.1 | 4 | 6.4 | 8.5 | -13.6 | 10 | -13.6 | -13.6 | -13.6
